Like-named read-outs stand apart in the source and are kept apart here. Where a SMILES comes first, the peptide text is derived from it. Bridges are numbered along the chain shown (N, C = ends).
Tests used:
[1] = biological target: P2Y2 receptor (Homo sapiens, UniProt P41231); conditions: cited from earlier work; for EC50: agonist potency
[2] = system: intestinal absorption of a phosphate meal from the gastrointestinal tract; experiment: Acute phosphate tracer uptake to plasma after intragastric co-administration of phosphate test meal and compound (Example 5); assay type: in vivo, rat; conditions: rats, 15 min after intragastric co-administration
Experimental: (§1) Compounds were tested for the ability to reduce the appearance of circulating radiolabeled phosphate subsequent to administration to the alimentary canal in rats. The rate of radiolabeled phosphate tracer accumulation in the blood of rats was taken as a surrogate for the intestinal absorption rate of a phosphate meal from the gastrointestinal tract. To this end, circulating radiolabeled phosphate was monitored after intragastric co-administration to rats of a phosphate tracer meal along with example compounds. However, since some of the compounds tested potentially had properties that may hinder this assay, such as having putative gastrointestinal motility effects (e.g., delaying gastric emptying) or being purposefully chemically unstable in the gastrointestinal tract, direct intraduodenal administrations of the phosphate tracer bolus was also performed at times.
Male Sprague-Dawley rats that were 8-weeks of age were purchased from Charles River Laboratories (Hollister, Calif.). To enable blood sampling, rats were purchased with catheters surgically implanted in the jugular vein by the vendor. For studies requiring intraduodenal administration, an additional catheter was surgically implanted by the vendor to allow for direct infusion to the lumen of the duodenum. Rats were fed a normal, grain-based chow (Harlan Teklad, Madison, Wis.; 2018 Teklad Global 18% Protein Rodent Diet) containing 0.65% P, 1% Ca, and 1.5 iu/g Vitamin D3 and given water ad libitum leading up to the study.
Following an overnight fast, rats were administered a phosphate solution containing [^33P]orthophosphate (PerkinElmer, Waltham, Mass.) as a tracer with or without test articles dispersed in the solution at the indicated dosage. This dosing solution typically contained 8 mM monobasic sodium phosphate (1.25 μCi [^33P]orthophosphate/μmol), 4 mM calcium chloride, 0.4% hydroxypropyl methocellulose (w/v), and 2% dimethylsulfoxide (w/v). The dosing solutions were prepared in water for intragastric gavage at 10 ml/kg and in saline if administered intraduodenally using a previously implanted catheter at 5 ml/kg as a bolus.
(§2) Blood was sampled from the jugular vein via implanted catheters from conscious rats following dosing and the radioisotope associated with the resulting plasma was determined by scintillation counting. The relative amount of phosphate uptake from the administered dose to the plasma was assessed using body weight estimation of total circulating plasma. See Bijsterbosch et al., Experientia. 37: 381-382, 1981 (The plasma volume of the Wistar rat in relation to the body weight). The comparative amount of phosphate uptake at 15 min post-dose for each group (n=6) was expressed as a percentage relative to the study vehicle group (n=6) as mean±SEM. Statistical comparisons of the means of each test group compared to the mean of the vehicle group were determined by one-way analysis of variance followed by the Dunnett's posthoc test and P<0.05 was accepted as statistically significant (ns, not significant; *, P<0.05; **, P<0.01; and ***, P <0.001).

[3] = system: intestinal absorption of a phosphate meal from the gastrointestinal tract; experiment: Acute phosphate tracer uptake to plasma after intraduodenal co-administration of phosphate test meal and compound (Example 5); assay type: in vivo, rat; conditions: rats, 15 min after intraduodenal co-administration
Experimental: as §1
Male Sprague-Dawley rats that were 8-weeks of age were purchased from Charles River Laboratories (Hollister, Calif.). To enable blood sampling, rats were purchased with catheters surgically implanted in the jugular vein by the vendor. For studies requiring intraduodenal administration, an additional catheter was surgically implanted by the vendor to allow for direct infusion to the lumen of the duodenum. […]
as §2, with “See Bijsterbosch et al., Experientia. 37: 381-382, 1981 (The plasma volume of the Wistar rat in relation to the body weight).” left out

[4] = system: phosphate absorption/uptake in the small intestine; experiment: 33P uptake to plasma in rats simultaneously dosed with 33P and test compound (Examples 2-4); assay type: in vivo, rat; conditions: for uptake of phosphate in the gastrointestinal tract of rats: figure legends FIGS. 1-3
Experimental: Experiments were performed to determine whether guanylate cyclase C (GC-C) receptor agonists can decrease phosphate absorption/uptake in the small intestine as measured by ^33P uptake. Rats were simultaneously dosed with ^33P and linaclotide as shown below:
Blood was collected at 5, 15, 30, 45, and 60 minutes post-^33P administration and plasma scintillation counting was performed.
Experiments were performed to determine whether other classes of drugs can decrease phosphate absorption/uptake in the small intestine as measured by ^33P uptake. Rats were simultaneously dosed with ^33P and either an imidazoline subtype 1 (I1) receptor agonist (moxonidine) or an adenylate cyclase agonist (the water-soluble forskolin analog NKH477) as shown below:
Experiments were performed to determine whether increasing intracellular calcium (Ca^++) by different mechanisms can also decrease phosphate absorption in the small intestine as measured by ^33P uptake. Rats were simultaneously dosed with ^33P and test compounds as shown below: […]

[5] = Rattus norvegicus, po, 0.25 h, dose 10 mg/kg, read-out: Uptake of phosphate tracer to plasma, % of study vehicle

Sequence of P2Y2 receptor (P41231 whole entry): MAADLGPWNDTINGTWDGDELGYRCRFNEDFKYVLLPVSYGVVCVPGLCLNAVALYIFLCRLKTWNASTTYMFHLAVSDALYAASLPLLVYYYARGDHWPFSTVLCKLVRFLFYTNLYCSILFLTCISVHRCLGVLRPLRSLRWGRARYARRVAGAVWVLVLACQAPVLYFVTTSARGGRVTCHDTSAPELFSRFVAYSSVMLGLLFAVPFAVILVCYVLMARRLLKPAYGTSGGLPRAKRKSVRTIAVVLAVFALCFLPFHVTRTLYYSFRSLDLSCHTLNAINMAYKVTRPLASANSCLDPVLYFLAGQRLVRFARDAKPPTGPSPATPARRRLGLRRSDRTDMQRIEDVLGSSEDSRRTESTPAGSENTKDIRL

## N[C@@H]1[C@H](O)[C@@H](COP(=O)(O)OP(=O)(O)OP(=O)(O)O)O[C@H]1n1ccc(=O)[nH]c1=S [2′-amino-2-thio-UTP]
[1]; P2Y2 versus P2Y4
  selectivity, P2Y2-selective versus P2Y4: 300 fold
[1]
  EC50: 8 nM

## Nc1nc(-c2nn(Cc3ccccc3F)c3ncccc23)ncc1C1CC1 [Bay 41-2271]
[2]; dose 10 mg/kg
  Uptake of phosphate tracer to plasma, % of study vehicle: >75%

## CCCCC(C)(C)[C@H](O)/C=C/[C@H]1[C@H](O)CC(=O)[C@@H]1C/C=C\CCCC(=O)O [16,16-dimethyl-PGE2, 16,16-dimethyl PGE2]
[2]; dose 3 μg/kg
  Uptake of phosphate tracer to plasma, % of study vehicle: >75%

## CC[C@H](C)[C@@H]1NC(=O)[C@H](CCCNC(=N)N)NC(=O)[C@H](CC(=O)O)NC(=O)[C@H](CCSC)NC(=O)[C@H](CCCNC(=N)N)NC(=O)CNC(=O)CNC(=O)[C@H](Cc2ccccc2)NC(=O)[C@@H](NC(=O)[C@H](CO)NC(=O)[C@H](CO)NC(=O)[C@H](CCCNC(=N)N)NC(=O)[C@H](CCCNC(=N)N)NC(=O)[C@H](CC(C)C)NC(=O)[C@@H](N)CO)CSSC[C@@H](C(=O)N[C@@H](CC(N)=O)C(=O)N[C@@H](CO)C(=O)N[C@@H](Cc2ccccc2)C(=O)N[C@@H](CCCNC(=N)N)C(=O)N[C@@H](Cc2ccc(O)cc2)C(=O)O)NC(=O)CNC(=O)[C@H](CC(C)C)NC(=O)CNC(=O)[C@H](CO)NC(=O)[C@H](CCC(N)=O)NC(=O)[C@H](C)NC(=O)CNC1=O [Atrial natriuretic peptide]
[3]; dose 0.2 mg/kg
  Uptake of phosphate tracer to plasma, % of study vehicle: >75%

## COCCCN1CCC(NC(=O)c2cc(Cl)c(N)c3c2OCC3)CC1 [Prucalopride, prucalopride]
[2]; [5]
  response vs control in vivo at 10 mg/kg: > 75%

## N#Cc1c(N)nc(SCC(N)=O)c(C#N)c1-c1ccc(OCC2CC2)cc1 [BAY 60-6583]
[2]; dose 10 mg/kg
  Uptake of phosphate tracer to plasma, % of study vehicle: >75%

## O=C(O)CCCCN(CCc1ccccc1OCc1ccc(CCc2ccccc2)cc1)Cc1ccc(C(=O)O)cc1 [Bay 58-2667]
[2]; dose 10 mg/kg
  Uptake of phosphate tracer to plasma, % of study vehicle: 50-75%

## CCN[C@H]1C[C@H](C)S(=O)(=O)c2sc(S(N)(=O)=O)cc21 [Dorzolamide, dorzolamide]
[2]; Rattus norvegicus, po, 0.25 h, dose 20 mg/kg, read-out: Uptake of phosphate tracer to plasma, % of study vehicle
  response vs control in vivo at 20 mg/kg: 50 to 75%

## CCOC(=O)C1=C[C@]2(CC)CCCN3CCc4c(n1c1ccccc41)[C@@H]32 [Vinpocetine, vinpocetine]
[2]; Rattus norvegicus, po, 0.25 h, dose 1 mg/kg + 0.03 mg/kg Linacolitde, read-out: Uptake of phosphate tracer to plasma, % of study vehicle
  response vs control in vivo at 1 mg/kg: 50 to 75%
[2]; Rattus norvegicus, po, 0.25 h, dose 1 mg/kg, read-out: Uptake of phosphate tracer to plasma, % of study vehicle
  response vs control in vivo at 1 mg/kg: > 75%
[2]; Rattus norvegicus, po, 0.25 h, dose 10 mg/kg + 0.03 mg/kg Linacolitde, read-out: Uptake of phosphate tracer to plasma, % of study vehicle
  response vs control in vivo at 10 mg/kg: 25 to 50%
[2]; [5]
  response vs control in vivo at 10 mg/kg: > 75%

## NC[C@@H]1O[C@H](c2ccccc2)Cc2c1ccc(O)c2O [A68930]
[2]; dose 10 mg/kg
  Uptake of phosphate tracer to plasma, % of study vehicle: 50-75%

## C1COC(NC(C2CC2)C2CC2)=N1 [Rilmenidine, rilmenidine]
[2]; Rattus norvegicus, po, 0.25 h, dose 3 mg/kg, read-out: Uptake of phosphate tracer to plasma, % of study vehicle
  response vs control in vivo at 3 mg/kg: > 75%

## CSc1nc(N)c2ncn([C@@H]3O[C@H](COP(=O)(O)OP(=O)(O)O)[C@@H](O)[C@H]3O)c2n1 [2-methylthio-ADP]
[3]; dose 10 mg/kg
  Uptake of phosphate tracer to plasma, % of study vehicle: >75%

## O=c1ccn([C@@H]2O[C@H](COP(=O)(O)OP(=O)(O)OP(=O)(O)OP(=O)(O)OC[C@H]3O[C@@H](n4ccc(=O)[nH]c4=O)[C@H](O)[C@@H]3O)[C@@H](O)[C@H]2O)c(=O)[nH]1 [Up4U]
[4]
  uptake of phosphate in the gastrointestinal tract of rats: reduces
[4]; rats, 15 mg/kg
  33P uptake/absorption: significantly decreased
[2]; Rattus norvegicus, po, 0.25 h, dose 5 mg/kg, read-out: Uptake of phosphate tracer to plasma, % of study vehicle
  response vs control in vivo at 5 mg/kg: > 75%
[2]; Rattus norvegicus, po, 0.25 h, dose 15 mg/kg, read-out: Uptake of phosphate tracer to plasma, % of study vehicle
  response vs control in vivo at 15 mg/kg: > 75%
[2]; Rattus norvegicus, po, 0.25 h, dose 50 mg/kg, read-out: Uptake of phosphate tracer to plasma, % of study vehicle
  response vs control in vivo at 50 mg/kg: > 75%

## C[C@@H]1NC(=O)[C@@H]2CCCN2C(=O)[C@H](CC(N)=O)NC(=O)[C@@H]2CSSC[C@H](N)C(=O)N[C@H]3CSSC[C@H](NC1=O)C(=O)N[C@@H]([C@@H](C)O)C(=O)NCC(=O)N[C@H](C(=O)N[C@@H](Cc1ccc(O)cc1)C(=O)O)CSSC[C@H](NC(=O)[C@H](Cc1ccc(O)cc1)NC(=O)[C@H](CCC(=O)O)NC3=O)C(=O)N2 [Linaclotide] (H-CCEYCCNPACTGCY-OH; disulfide 1-6, 2-10, 5-13)
[4]
  uptake of phosphate in the gastrointestinal tract of rats: reduces
[4]; rats, both doses, 0.1 and 0.3 mg/kg, blood 5-60 min post-33P
  absorption of phosphate in the gastrointestinal tract (plasma 33P): decreased
[2]; dose 0.03 mg/kg
  Uptake of phosphate tracer to plasma, % of study vehicle: 50-75%
[2]; dose 0.1 mg/kg
  Uptake of phosphate tracer to plasma, % of study vehicle: 50-75%
[2]; dose 0.3 mg/kg
  Uptake of phosphate tracer to plasma, % of study vehicle: 25-50%

## COc1ccc2[nH]cc(CCNC(C)=O)c2c1 [Melatonin, N-acetyl-5-methoxytryptamine]
[2]; [5]
  response vs control in vivo at 10 mg/kg: 50 to 75%

## CC(C[N+](C)(C)C)OC(N)=O (stereo not drawn) [Bethanechol, carbamoyl-β-methlycholine]
[2]; [5]
  response vs control in vivo at 10 mg/kg: > 75%

## 6-guanyl NECA
[2]; dose 10 mg/kg
  Uptake of phosphate tracer to plasma, % of study vehicle: >75%

## COc1nc(C)nc(Cl)c1N=C1NCCN1 [Moxonidine, moxonidine]
[4]
  uptake of phosphate in the gastrointestinal tract of rats: reduce
[2]; Rattus norvegicus, po, 0.25 h, dose 2 mg/kg, read-out: Uptake of phosphate tracer to plasma, % of study vehicle
  response vs control in vivo at 2 mg/kg: 50 to 75%
[2]; Rattus norvegicus, po, 0.25 h, dose 6 mg/kg, read-out: Uptake of phosphate tracer to plasma, % of study vehicle
  response vs control in vivo at 6 mg/kg: 25 to 50%

## O=c1[nH]c(=S)ccn1[C@@H]1O[C@H](COP(=O)(O)OP(=O)(O)C(F)(F)P(=O)(O)O)[C@@H](O)[C@H]1O [PSB1114]
[3]; dose 15 mg/kg
  Uptake of phosphate tracer to plasma, % of study vehicle: >75%

## O=c1[nH]c(=O)n([C@@H]2O[C@H](COP(=O)(O)OP(=O)(O)OP(=O)(O)O)[C@@H](O)[C@H]2O)cc1I [5-iodo-UTP]
[1]
  EC50: 830 nM

Reference: patent US11813304B2, “Compounds and methods for inhibiting phosphate transport” (Ardelyx, Inc., priority 2013, dated 2023)
